# According to the supplement of paper PMC11579375:
# Legend:
# Assay in all cases: area under the viability dose-response curve (AUC) (AUC (arbitrary units, max 500 = no viability loss)); higher = less sensitive (higher viability)
# Conditions in all cases: exposure time: 120 h; concentration range: 0.1 nM - 10 µM, 6 doses
# 10F2 = tested on: 10F2 (fetal-II hepatoblastoma organoid with high liver markers)
# Procedure: (§1)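 Patient-derived hepatoblastoma tumor organoids (about 50 organoids per well, 384-well plates, medium with 5% BME) were treated with the PMC pediatric cancer drug library. Each drug was tested in duplicate at 6 concentrations (0.1 nM to 10 µM, 10-fold steps).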
# 17E = tested on: 17E (embryonal-type hepatoblastoma organoid)
# Procedure: as §1
# 8F1 = tested on: 8F1 (fetal-I hepatoblastoma organoid with intermediate liver markers)
# Procedure: as §1
# 27F1 = tested on: 27F1 (fetal-I hepatoblastoma organoid with intermediate liver markers)
# Procedure: as §1
# 22E = tested on: 22E (embryonal-type hepatoblastoma organoid)
# Procedure: as §1
# 3E = tested on: 3E (embryonal-type hepatoblastoma organoid)
# Procedure: as §1
# 13F2 = tested on: 13F2 (fetal-II hepatoblastoma organoid with high liver markers)
# Procedure: as §1
# 17F1 = tested on: 17F1 (fetal-I hepatoblastoma organoid with intermediate liver markers)
# Procedure: as §1
# 13E = tested on: 13E (embryonal-type hepatoblastoma organoid)
# Procedure: as §1
# 96F1 = tested on: 96F1 (fetal-I hepatoblastoma organoid with intermediate liver markers)
# Procedure: as §1
# 135F2 = tested on: 135F2 (fetal-II hepatoblastoma organoid with high liver markers)
# Procedure: as §1
SMILES,area under the viability dose-response curve (10F2),area under the viability dose-response curve (17E),area under the viability dose-response curve (8F1),area under the viability dose-response curve (27F1),area under the viability dose-response curve (22E),area under the viability dose-response curve (3E),area under the viability dose-response curve (13F2),area under the viability dose-response curve (17F1),area under the viability dose-response curve (13E),area under the viability dose-response curve (96F1),area under the viability dose-response curve (135F2)
Cc1sc2c(c1C)C(c1ccc(Cl)cc1)=N[C@@H](CC(N)=O)c1nnc(C)n1-2 [CPI-203],335,373,447,468,413,342,336,467,410,473,334
C#Cc1cccc(Nc2ncnc3cc4c(cc23)OCCOCCOCCO4)c1 [Icotinib],376,487,495,442,> 500,474,406,465,497,464,474
CC[C@H](Nc1nc(NCc2cnc(C)cc2C)c2ncn(C(C)C)c2n1)[C@@H](C)O [CYC065],325,381,377,347,419,382,328,366,400,333,387
COc1cc([C@@H]2c3cc4c(cc3[C@@H](O[C@@H]3O[C@@H]5CO[C@@H](C)O[C@H]5[C@H](O)[C@H]3O)[C@H]3COC(=O)[C@H]23)OCO4)cc(OC)c1O [Etoposide],388,349,477,446,446,378,359,438,380,383,389
Oc1nc(-c2ccc(C(F)(F)F)cc2)nc2c1CSCC2 [XAV-939],456,> 500,490,> 500,491,496,477,> 500,486,> 500,486
CCc1cc2c(cc1N1CCC(N3CCOCC3)CC1)C(C)(C)c1[nH]c3cc(C#N)ccc3c1C2=O [Alectinib],> 500,> 500,496,> 500,479,452,473,499,498,> 500,499
CN1CC[C@@H](NC(=O)Nc2ccc(C#N)cc2)C[C@@H]1c1nc2ccccc2[nH]1 [Glasdegib],448,> 500,> 500,> 500,> 500,> 500,> 500,497,> 500,> 500,> 500
COc1cc2nccc(Oc3ccc(NC(=O)NC4CC4)c(Cl)c3)c2cc1C(N)=O [Lenvatinib],419,434,461,445,472,475,445,> 500,468,474,469
COCC[n+]1c2c(n(Cc3cnccn3)c1C)C(=O)c1ccccc1C2=O [Sepantronium bromide],348,331,429,408,316,241,395,312,337,286,427
Cc1ccc(NC(=O)c2ccc(CN3CCN(C)CC3)cc2)cc1Nc1nccc(-c2cccnc2)n1 [Imatinib],488,496,483,481,500,487,498,478,499,498,478
CO[C@H]1C[C@@H]2CC[C@@H](C)[C@@](O)(O2)C(=O)C(=O)N2CCCC[C@H]2C(=O)O[C@H]([C@H](C)C[C@@H]2CC[C@@H](OCCO)[C@H](OC)C2)CC(=O)[C@H](C)/C=C(\C)[C@@H](O)[C@@H](OC)C(=O)[C@H](C)C[C@H](C)/C=C/C=C/C=C/1C [Everolimus],373,334,467,> 500,356,303,327,494,393,464,453
Cc1c(Cn2c(C)nc3c(C(=O)O)cc(N4CCOCC4)cc32)cccc1C(F)(F)F,500,495,> 500,498,495,499,488,498,488,497,> 500
CC(C)C[C@H](NC(=O)[C@H](Cc1ccccc1)NC(=O)c1cnccn1)B(O)O [Bortezomib],189,173,207,200,193,133,182,170,179,210,191
COc1ccc(-c2nc(N3CCOCC3)c3sc(CN(C)c4ncc(C(=O)NO)cn4)cc3n2)cn1 [Fimepinostat],169,158,296,255,237,161,167,255,236,235,166
C[C@@H]1COCCN1c1cc(C2([S@](C)(=N)=O)CC2)nc(-c2cc[nH]c3nccc2-3)n1 [Ceralasertib],475,462,> 500,479,462,442,450,478,468,450,448
O=c1cc(-c2cccc3c2Sc2ccccc2S3)oc(N2CCOCC2)c1,455,498,> 500,> 500,497,490,500,> 500,498,> 500,> 500
Nc1ccn([C@@H]2O[C@H](CO)[C@@H](O)C2(F)F)c(=O)n1 [Gemcitabine],212,257,433,310,331,241,209,273,339,273,237
C[C@@H]1C[C@H]2[C@@H]3CCC4=CC(=O)C=C[C@]4(C)[C@@]3(F)[C@@H](O)C[C@]2(C)[C@@]1(O)C(=O)CO [Dexamethasone],> 500,> 500,484,> 500,497,> 500,494,477,473,> 500,472
C=CC(=O)N1CCC[C@@H](n2nc(-c3ccc(Oc4ccccc4)cc3)c3c(N)ncnc32)C1 [Ibrutinib],386,439,480,418,443,> 500,358,488,476,438,455
C[C@]1(O)C[C@@H](c2nc(-c3ccc4ccc(-c5ccccc5)nc4c3)c3c(N)nccn32)C1 [Linsitinib],467,384,484,476,391,374,410,492,405,454,487
CC1(C)CCC2(CC1)N[C@@H](C(=O)N[C@@H]1CC[C@@H](C(N)=O)OC1)[C@H](c1ccnc(Cl)c1F)[C@]21C(=O)Nc2cc(Cl)ccc21 [Milademetan],268,294,367,357,406,313,256,376,370,399,341
